pEC50, pIC50: −log10 of the molar value. Structures can show the parent of a compound that is named as a salt. Where two headings read alike, the source gives them in different places.
What was measured:
SUDHL10 [1] = assay: Induction of cytotoxicity (Assay 6), SUDHL10
SUDHL5 [2] = assay: Antiproliferation assay 7, SUDHL5; assay type: cell-based; details: SUDHL5 cells, CellTiter-Glo, read-out: Antiproli SUDHL5 IC50 (median)
Description: (§1) Assessment of the Anti-Proliferative Effect of Compounds in Different Cell Lines
(§2) The impact of compounds on the proliferation of different cell lines was assessed using the CellTiter-Glo® Luminescent Cell Viability reagent from Promega (G7573).
(§3) In parallel, cells were plated in a reference (day 0) plate for time zero determination.
(§4) Rim wells were excluded. The cells were incubated for 72 hours in a humidified incubator at 37° C. The day 0 plate was measured by adding 30 μL/well of CTG solution (CellTiter-Glo® Luminescent Cell Viability reagent, Promega G7573) to time zero wells in the reference plate followed by a 10 minutes incubation and luminescence reading at 0.1 ms. using the PHERAstar FS microplate reader (BMG Labtech).
(§5) After 72 hours incubation, the treated plates were measured in the same way as the day 0 plate mentioned above.

SUDHL5 [3] = assay: Induction of caspase-3/7 activity (Assay 4), SUDHL5; assay type: cell-based; details: SUDHL5 cells
Description: (§6) Induction of Caspase-3/7 Activity Upon Treatment of Cells with Selected Compounds
The BH3-domain of MCL-1 sequesters pro-apoptotic proteins, thereby inhibiting apoptosis. In contrast, MCL-1 inhibitors are expected to antagonize this effect leading to an increase in apoptosis, which can be determined by measuring the activity of caspase-3/7.
(§7) The activity of caspase-3/7 was determined in DLBCL (Diffuse large B-cell lymphoma) cell lines (SUDHL5 and SUDHL10) upon treatment with different compounds, using the Caspase-Glo®3/7 reagent from Promega (G8092).
(§8) Rim wells were excluded. The cells were incubated for 3 hours in a humidified incubator at 37° C.
(§9) For the evaluation of the results, the background measured with “medium-only” was subtracted from all other values.

SUDHL5 [4] = assay: Induction of cytotoxicity (Assay 6), SUDHL5
MV-4-11 = assay: Antiproliferation assay 7, MV-4-11; assay type: cell-based; details: MV-4-11 cells, CellTiter-Glo, read-out: Antiproli MV-4-11 IC50 median
Description: as §1, §2, §3, §4, §5

SUDHL10 [5] = assay: Induction of caspase-3/7 activity (Assay 4), SUDHL10; assay type: cell-based; details: SUDHL10 cells
Description: as §6
In contrast, MCL-1 inhibitors are expected to antagonize this effect leading to an increase in apoptosis, which can be determined by measuring the activity of caspase-3/7.
as §7, §8, §9

AMO-1 = assay: Antiproliferation assay 7, AMO-1; assay type: cell-based; details: AMO-1 cells, CellTiter-Glo, read-out: Antiproli AMO-1 IC50 median
Description: as §1, §2, §3, §4, §5

[6] = Homo sapiens, SU-DHL10, 5 h, read-out: Cytotox SUDHL10 IC50 (median), SUDHL10 cells, 5 hours, CellTiter-Glo
[7] = Homo sapiens, SU-DHL-5, 3 h, Caspase-Glo 3/7, read-out: Caspase SUDHL5 EC50 (median)
[8] = Homo sapiens, SU-DHL-5, 5 h, read-out: Cytotox SUDHL5 IC50 (median), SUDHL5 cells, 5 hours, CellTiter-Glo
[9] = Homo sapiens, SU-DHL10, 3 h, Caspase-Glo 3/7, read-out: Caspase SUDHL10 EC50 (median)
[10] = read-out: Cytotox SUDHL10 IC50 (median), SUDHL10 cells, 5 hours, CellTiter-Glo
[11] = 3 hours, Caspase-Glo 3/7, read-out: Caspase SUDHL5 EC50 (median)
[12] = read-out: Cytotox SUDHL5 IC50 (median), SUDHL5 cells, 5 hours, CellTiter-Glo
[13] = 3 hours, Caspase-Glo 3/7, read-out: Caspase SUDHL10 EC50 (median)

Compound | pIC50 (SUDHL10 [1]; [6]) | pIC50 (SUDHL5 [2]; Homo sapiens, SU-DHL-5, 72 h) | pEC50 (SUDHL5 [3]; [7]) | pIC50 (SUDHL5 [4]; [8]) | pIC50 (MV-4-11; Homo sapiens, MV4-11, 72 h) | pEC50 (SUDHL10 [5]; [9]) | pIC50 (AMO-1; Homo sapiens, AMO1, 72 h) | pIC50 (SUDHL10 [1]; [10]) | pIC50 (SUDHL5 [2]; 72 hours) | pEC50 (SUDHL5 [3]; [11]) | pIC50 (SUDHL5 [4]; [12]) | pIC50 (MV-4-11; 72 hours) | pIC50 (AMO-1; 72 hours) | pEC50 (SUDHL10 [5]; [13])
Cc1c2c(nn1C)CNCCCn1c(C(=O)O)c(CCCOc3cccc4ccccc34)c3ccc(Cl)c-2c31 (racemic) [Example 28, (rac)-12-chloro-10,11-dimethyl-1-[3-(naphthalen-1-yloxy)propyl]-4,5,6,7,8,10-hexahydropyrazolo[3′,4′:7,8][1,5]diazecino[9,10,1-hi]indole-2-carboxylic Acid-Formic Acid Salt] | 5.25 | 5.52 | 5.54 | 5.48 | 5.09 | 5.24 |  |  |  |  |  |  |  | 
Cc1c2c(nn1C)CN(C)CCCn1c(C(=O)O)c(CCCOc3cccc4ccccc34)c3ccc(Cl)c-2c31 (racemic) [Example 29, (rac)-12-chloro-7,10,11-trimethyl-1-[3-(naphthalen-1-yloxy)propyl]-4,5,6,7,8,10-hexahydropyrazolo[3′,4′:7,8][1,5]diazecino[9,10,1-hi]indole-2-carboxylic Acid] | 5.49 |  | 5.92 |  | 5.57 | 5.43 |  |  |  |  |  |  |  | 
CCc1nn(C)c2c1-c1c(Cl)ccc3c(CCCOc4cccc5cc(F)ccc45)c(C(=O)O)n(c13)CCCCOC2 (racemic) [Example 33, (rac)-4-chloro-3-ethyl-7-{3-[(6-fluoronaphthalen-1-yl)oxy]propyl}-1-methyl-1,10,11,12,13,15-hexahydropyrazolo[4′,3′:9,10][1,6]oxazacycloundecino[8,7,6-hi]indole-8-carboxylic Acid] |  |  | 6.17 | 6.00 | 5.77 | 5.24 | 5.80 |  |  |  |  |  |  | 
CCc1nn(CCN2CCOCC2)c2c1-c1c(Cl)ccc3c(CCCOc4cccc5ccccc45)c(C(=O)O)n(c13)CCCCOC2 (single isomer, unassigned; enantiomer 2) [Example 10, 4-chloro-3-ethyl-1-[2-(morpholin-4-yl)ethyl]-7-[3-(naphthalen-1-yloxy)propyl]-1,10,11,12,13,15-hexahydropyrazolo[4′,3′:9,10][1,6]oxazacycloundecino[8,7,6-hi]indole-8-carboxylic acid-N-ethylethanamine Salt (Enantiomer 2)] | 4.96 | 5.31 | 5.18 | 5.28 | 4.96 | 4.85 |  |  |  |  |  |  |  | 
Cc1c2c(nn1C)CN(C)CCCCn1c(C(=O)O)c(CCCOc3cccc4ccccc34)c3ccc(Cl)c-2c31 (single isomer, unassigned; enantiomer 2) [Example 13, (−)-4-chloro-2,3,14-trimethyl-7-[3-(naphthalen-1-yloxy)propyl]-10,11,12,13,14,15-hexahydro-2H-pyrazolo[3′,4′:8,9][1,6]diazacycloundecino[10,11,1-hi]indole-8-carboxylic acid-N-ethylethanamine Salt (Enantiomer 2)] |  |  |  |  |  |  |  | 4.89 | 5.19 | 5.00 | 5.16 | 4.91 |  | 
Cc1c2c(nn1C)COCCCCn1c(C(=O)O)c(CCCOc3cccc4cc(F)ccc34)c3ccc(Cl)c-2c31 (single isomer, unassigned; enantiomer 2) [Example 17, (−)-4-chloro-7-{3-[(6-fluoronaphthalen-1-yl)oxy]propyl}-2,3-dimethyl-2,10,11,12,13,15-hexahydropyrazolo[4′,3′:9,10][1,6]oxazacycloundecino[8,7,6-hi]indole-8-carboxylic acid-N-ethylethanamine Salt (Enantiomer 2)] |  |  |  |  |  |  |  |  | 5.82 | 5.44 | 5.48 | 5.17 | 5.05 | 5.28
CCc1c2c(nn1C)COCCCCn1c(C(=O)O)c(CCCOc3cccc4ccccc34)c3ccc(Cl)c-2c31 (single isomer, unassigned; enantiomer 2) [Example 21, 4-chloro-3-ethyl-2-methyl-7-[3-(naphthalen-1-yloxy)propyl]-2,10,11,12,13,15-hexahydropyrazolo[4′,3′:9,10][1,6]oxazacycloundecino[8,7,6-hi]indole-8-carboxylic Acid (Enantiomer 2)] |  |  |  |  |  |  |  | 4.96 | 5.48 | 5.34 | 5.43 |  |  | 
CCc1c2c(nn1C)CN(C)CCCCn1c(C(=O)O)c(CCCOc3cccc4ccccc34)c3ccc(Cl)c-2c31 (single isomer, unassigned; enantiomer 2) [Example 24, 4-chloro-3-ethyl-2,14-dimethyl-7-[3-(naphthalen-1-yloxy)propyl]-10,11,12,13,14,15-hexahydro-2H-pyrazolo[3′,4′:8,9][1,6]diazacycloundecino[10,11,1-hi]indole-8-carboxylic Acid (Enantiomer 2)] |  |  |  |  |  |  |  | 5.13 | 5.47 |  | 5.33 | 5.17 |  | 5.00
Cc1c2c(nn1C)COCCCCn1c(C(=O)O)c(CCCOc3cccc4ccccc34)c3ccc(Cl)c-2c31 (single isomer, unassigned; enantiomer 2) [Example 27, 4-chloro-2,3-dimethyl-7-[3-(naphthalen-1-yloxy)propyl]-2,10,11,12,13,15-hexahydropyrazolo-[4′,3′:9,10][1,6]oxazacycloundecino[8,7,6-hi]indole-8-carboxylic acid-N-ethylethanamine Salt (Enantiomer 2)] |  |  |  |  |  |  |  | 4.70 | 5.11 | 4.80 | 5.00 | 4.79 |  | 4.64
CCc1nn(C)c2c1-c1c(Cl)ccc3c(CCCOc4cccc5cc(F)ccc45)c(C(=O)O)n(c13)CCCCOC2 (single isomer, unassigned; enantiomer 2) [Example 35, (−)-4-chloro-3-ethyl-7-{3-[(6-fluoronaphthalen-1-yl)oxy]propyl}-1-methyl-1,10,11,12,13,15-hexahydropyrazolo[4′,3′:9,10][1,6]oxazacycloundecino[8,7,6-hi]indole-8-carboxylic Acid (Enantiomer 2)] |  |  |  |  |  |  |  |  | 5.21 | 5.12 | 5.20 | 5.07 | 4.88 | 4.66
CCc1c2c(nn1C)N(CCC1CCOCC1)CCCCCn1c(C(=O)O)c(CCCOc3cccc4cc(F)ccc34)c3ccc(Cl)c-2c31 (single isomer, unassigned; enantiomer 2) [Example 82, 4-chloro-3-ethyl-7-{3-[(6-fluoronaphthalen-1-yl)oxy]propyl}-2-methyl-15-[2-(oxan-4-yl)ethyl]-10,11,12,13,14,15-hexahydro-2H-pyrazolo[4′,3′:4,5][1,6]diazacycloundecino[3,2,1-hi]indole-8-carboxylic acid N-ethylethanamine Salt—Enantiomer 2] |  |  |  |  |  |  |  | 4.52 | 5.15 | 4.62 | 4.55 |  |  | 4.64
Cc1c2c(nn1C)COCC1CCC1Cn1c(C(=O)O)c(CCCOc3cccc4ccccc34)c3ccc(Cl)c-2c31 (single isomer, unassigned; stereoisomer 2) [Example 64] |  |  |  |  |  |  |  | 5.14 | 5.38 | 5.74 | 5.64 |  | 4.97 | 5.08
